Measured values reported in publication PMC12445744, “Molecular docking to homology models of human and Trypanosoma brucei ERK8 that identified ortholog-specific inhibitors” (PLOS Neglected Tropical Diseases, 2025).
“And” between values parts separate entries of the source, which are not always exact repeats. Equal values may be shown once.

Biological target: T1, TbERK8 (Trypanosoma brucei brucei, UniProt Q38B88)
T1 sequence (Q38B88 1-442): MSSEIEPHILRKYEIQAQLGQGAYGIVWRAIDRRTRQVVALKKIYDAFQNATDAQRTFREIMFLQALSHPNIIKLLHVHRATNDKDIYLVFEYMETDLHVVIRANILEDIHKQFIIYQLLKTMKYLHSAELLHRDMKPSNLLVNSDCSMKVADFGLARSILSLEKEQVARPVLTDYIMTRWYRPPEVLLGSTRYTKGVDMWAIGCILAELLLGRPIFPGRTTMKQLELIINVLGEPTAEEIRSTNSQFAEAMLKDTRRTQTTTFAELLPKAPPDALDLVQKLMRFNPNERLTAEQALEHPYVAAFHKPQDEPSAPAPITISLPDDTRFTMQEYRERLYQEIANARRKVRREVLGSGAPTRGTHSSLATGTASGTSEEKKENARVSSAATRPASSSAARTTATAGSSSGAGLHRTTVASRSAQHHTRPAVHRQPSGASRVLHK
Assay: Luciferase-based kinase inhibition assay (ATP luminescence), GST-tagged TbERK8 with MBP substrate
Assay type: biochemical
Parameters: raw luminescence, TbERK8: unit of the concentration uncertain
Conditions: for raw luminescence, TbERK8: replicate wells; for raw luminescence, TbERK8 / Luminescence Raw (Kinase-Glo): listed as Sil; for Luminescence Raw (Kinase-Glo): TbERK8
Method: Escherichia coli strain Rosetta 2 (DE3) (Cat# 71397, MilliporeSigma, Burlington, MA) was transformed with the plasmid pGEX2T expressing the full-length hERK8 coding region or pGSTAg expressing the full-length TbERK8 coding region. One liter of Terrific Broth media containing 100 μg/ml Ampicillin and 30 μg/ml chloramphenicol in 2 L baffled flasks was inoculated with 25 mL from an overnight culture of Rosetta 2 strains harboring either the pGEX2T-hERK8 or pGSTAg-TbERK8 plasmid. Two baffled flasks were inoculated with each overnight strain and incubated and shaken at 175 RPM in a New Brunswick Innova 44R Incubator Shaker (Fischer Scientific, Pittsburgh, PA) at 37 °C until the cultures reached an O.D.600 of 0.94. Once the cultures in the flask reached the target O.D.600, the flasks were cooled to 4 °C in an ice water bath. The cooled cultures were induced by adding isopropyl β-D-1-thiogalactopyranoside (IPTG) to a final concentration of 0.1 mM and shaken at 16 °C for 16 hours at 175 RPM in a New Brunswick Innova 44R Incubator Shaker (Fischer Scientific, Pittsburgh, PA). On the next day, the cultures were pelleted by centrifugation at 9000 xg in a JLA 10.500 rotor (Beckman Coulter; Brea, CA), and the media was decanted. The pellet was flash-frozen in liquid nitrogen and then thawed on ice. The thawed pellet was resuspended in lysis buffer (25 mM Tris, 75 mM NaCl, 0.5% TritonX-100 and 0.5% Nonidet P-40, 1 mM phenylmethanesulfonyl fluoride, 1 mM benzamidine⋅HCl) and lysed using a microfluidizer M-110P from Microfluidics (Westwood, MA). The crude lysates were clarified by centrifugation at 140,000 xg in a 45Ti rotor (Beckman Coulter, Brea, CA) for 30 min at 4°C. The clarified lysate was loaded by gravity to a 3 mL glutathione agarose resin column (Cat# G-250–10, GOLDBIO, St. Louis, MO) formed in a 1.5 × 20 cm glass chromatography column (Cat# 7371522, Bio-Rad, Hercules, CA). The column was washed with 30 mL of PBS (pH 7.4) containing 1 mM DTT. Elution buffer (50 mM Tris buffer pH 8.0 containing 10 mM reduced glutathione and 1 mM DTT was added to the washed column), and 1 mL fractions were collected by gravity and examined by SDS-PAGE stained by Coomassie dye. Peak fractions pooled from the elution were dialyzed (4x 1:500 dilutions) in kinase buffer (30 mM Tris, pH 7.4, 10 mM MgCl2, 1 mM DTT, 5% glycerol).
We performed kinase assays in buffer K (30 mM Tris pH 7.4, 10 mM MgCl2, 1 mM DTT, 5% glycerol, 50 μM ATP, and 0.1 mg/mL BSA) at 30°C for 30 min in 30 μL reactions. GST-tagged HsERK8 and TbERK8 were tested using myelin basic protein (MBP) (Cat# 13–110, Millipore, Darmstadt, Germany) as the substrate at increasing concentrations to determine the optimal activity for the assay. ATP consumption was determined by adding equal volumes of the kinase assay reagent (Promega, Cat# V5601, Madison, WI) following the manufacturer’s protocol. Luminescence was measured using the microplate reader (SpectraMax L, Molecular Devices, Sunnyvale, CA).
These compounds were screened for kinase inhibition utilizing a luciferase-based assay. Briefly, the kinases were tested using MBP as the substrate at a 14-fold molar excess in 384-well flat-bottom white plates (BRANDTECH Scientific, Cat# 781681, Essex, CT). These compounds were tested at concentrations ranging from […] to 150 nM. The kinases plus MBP substrate reactions were incubated with each inhibitor for 30 minutes at 30°C. Equal volumes of kinase assay mix Promega (Cat# V5601, Madison, WI) were added to the kinase/inhibitor reaction after 30 minutes, following the manufacturer’s protocol. ATP luminescence was measured using a microplate reader (SpectraMax L, Molecular Devices, Sunnyvale, CA). IC50 values were calculated from assays done in triplicate by fitting the data using Prism 8.1.1 (GraphPad).

- IC50: 9 mM
- raw luminescence, TbERK8 (10.00000 (unit uncertain) compound, sheet Kinase_glo 08142024 (2)): 40177.6 RLU (2×) and 40048.6 RLU
- Luminescence Raw (Kinase-Glo) (inhibitor 0.00976562 mM, sheet Sil_Pred3, read 3): 36049.4 and 37274.6 and 36862.3
- Luminescence Raw (Kinase-Glo) (inhibitor 0.0195312 mM, sheet Sil_Pred3, read 3): 31279.7 and 32797.7 and 32247.2
- Luminescence Raw (Kinase-Glo) (inhibitor 0.0390625 mM, sheet Sil_Pred3, read 3): 27320.5 and 29281.3 and 28655.8
- Luminescence Raw (Kinase-Glo) (inhibitor 0.078125 mM, sheet Sil_Pred3, read 3): 38799.7 and 40144.4 and 45260.9
- Luminescence Raw (Kinase-Glo) (inhibitor 0.15625 mM, sheet Sil_Pred3, read 3): 29028.3 and 32258.9 and 32301.1
- Luminescence Raw (Kinase-Glo) (inhibitor 0.3125 mM, sheet Sil_Pred3, read 3): 27939 and 30286.4 and 29686.6
- Luminescence Raw (Kinase-Glo) (inhibitor 0.625 mM, sheet Sil_Pred3, read 3): 36091.6 and 38406.1 and 37640.1
- Luminescence Raw (Kinase-Glo) (inhibitor 0.00976562, sheet Sil_Pred1, read 1): 40167.3 and 42010.2 and 38672.9
- Luminescence Raw (Kinase-Glo) (inhibitor 0.00976562, sheet Sil_Pred2, read 2): 37219 and 38747.1 and 37019
- Luminescence Raw (Kinase-Glo) (inhibitor 0.0195312, sheet Sil_Pred1, read 1): 34760.2 and 36412.8 and 34705.2
- Luminescence Raw (Kinase-Glo) (inhibitor 0.0195312, sheet Sil_Pred2, read 2): 32386.1 and 33904.8 and 32825.7
- Luminescence Raw (Kinase-Glo) (inhibitor 0.0390625, sheet Sil_Pred1, read 1): 30029.2 and 32598.7 and 32204.5
- Luminescence Raw (Kinase-Glo) (inhibitor 0.0390625, sheet Sil_Pred2, read 2): 28304.4 and 29974.3 and 30192.9
- Luminescence Raw (Kinase-Glo) (inhibitor 0.078125, sheet Sil_Pred1, read 1): 43786.6 and 44925.8 and 48645.9
- Luminescence Raw (Kinase-Glo) (inhibitor 0.078125, sheet Sil_Pred2, read 2): 39158.7 and 41749.6 and 45619.7
- Luminescence Raw (Kinase-Glo) (inhibitor 0.15625, sheet Sil_Pred1, read 1): 32447.4 and 35952.1 and 35828.3
- Luminescence Raw (Kinase-Glo) (inhibitor 0.15625, sheet Sil_Pred2, read 2): 29879 and 33446.7 and 32672.2
- Luminescence Raw (Kinase-Glo) (inhibitor 0.3125, sheet Sil_Pred1, read 1): 31858.4 and 33536.2 and 32552.9
- Luminescence Raw (Kinase-Glo) (inhibitor 0.3125, sheet Sil_Pred2, read 2): 29706.8 and 31355.8 and 30890.7
- Luminescence Raw (Kinase-Glo) (inhibitor 0.625, sheet Sil_Pred1, read 1): 41361.5 and 43495.5 and 43241.1
- Luminescence Raw (Kinase-Glo) (inhibitor 0.625, sheet Sil_Pred2, read 2): 37112 and 39789 and 39512.2
SMILES: CCCc1nn(C)c2c(=O)[nH]c(-c3cc(S(=O)(=O)N4CCN(C)CC4)ccc3OCC)nc12 [Sildenafil]
- raw luminescence, TbERK8 (0.00015 (unit uncertain) compound, sheet ADP_ATP_glo081724 (3)): 192.26 RLU and 196.784 RLU and 144.761 RLU
- raw luminescence, TbERK8 (0.00015 (unit uncertain) compound, sheet Kinase_glo 08142024 (2)): 642.503 RLU and 676.319 RLU and 570.644 RLU
- raw luminescence, TbERK8 (0.00015 (unit uncertain) compound, sheet Kinase_glo_080924_IFPS (2)): 1471.05 RLU and 1414.9 RLU and 1313.84 RLU
- raw luminescence, TbERK8 (0.00061 (unit uncertain) compound, sheet ADP_ATP_glo081724 (3)): 122.142 RLU and 174.165 RLU and 104.047 RLU
- raw luminescence, TbERK8 (0.00061 (unit uncertain) compound, sheet Kinase_glo 08142024 (2)): 718.589 RLU and 748.177 RLU and 712.248 RLU
- raw luminescence, TbERK8 (0.00061 (unit uncertain) compound, sheet Kinase_glo_080924_IFPS (2)): 788.303 RLU and 923.056 RLU and 783.811 RLU
- raw luminescence, TbERK8 (0.00244 (unit uncertain) compound, sheet ADP_ATP_glo081724 (3)): 246.545 RLU and 205.831 RLU and 226.188 RLU
- raw luminescence, TbERK8 (0.00244 (unit uncertain) compound, sheet Kinase_glo 08142024 (2)): 701.681 RLU and 748.177 RLU and 629.822 RLU
- raw luminescence, TbERK8 (0.00244 (unit uncertain) compound, sheet Kinase_glo_080924_IFPS (2)): 458.159 RLU and 390.783 RLU and 375.062 RLU
- raw luminescence, TbERK8 (0.00977 (unit uncertain) compound, sheet ADP_ATP_glo081724 (3)): 235.236 RLU and 187.736 RLU and 135.713 RLU
- raw luminescence, TbERK8 (0.00977 (unit uncertain) compound, sheet Kinase_glo 08142024 (2)): 820.036 RLU and 841.171 RLU and 775.653 RLU
- raw luminescence, TbERK8 (0.00977 (unit uncertain) compound, sheet Kinase_glo_080924_IFPS (2)): 660.288 RLU and 590.666 RLU and 547.994 RLU
- raw luminescence, TbERK8 (0.03906 (unit uncertain) compound, sheet ADP_ATP_glo081724 (3)): 210.355 RLU and 205.831 RLU and 187.736 RLU
- raw luminescence, TbERK8 (0.03906 (unit uncertain) compound, sheet Kinase_glo 08142024 (2)): 526.26 RLU and 661.524 RLU and 672.092 RLU
- raw luminescence, TbERK8 (0.03906 (unit uncertain) compound, sheet Kinase_glo_080924_IFPS (2)): 981.449 RLU and 954.498 RLU and 819.745 RLU
- raw luminescence, TbERK8 (0.15625 (unit uncertain) compound, sheet ADP_ATP_glo081724 (3)): 341.544 RLU and 352.854 RLU and 287.259 RLU
- raw luminescence, TbERK8 (0.15625 (unit uncertain) compound, sheet Kinase_glo 08142024 (2)): 849.625 RLU and 830.604 RLU and 743.951 RLU
- raw luminescence, TbERK8 (0.15625 (unit uncertain) compound, sheet Kinase_glo_080924_IFPS (2)): 1302.61 RLU and 956.744 RLU and 1116.2 RLU
- raw luminescence, TbERK8 (0.62500 (unit uncertain) compound, sheet ADP_ATP_glo081724 (3)): 653.684 RLU and 678.565 RLU and 508.924 RLU
- raw luminescence, TbERK8 (0.62500 (unit uncertain) compound, sheet Kinase_glo 08142024 (2)): 1502.69 RLU and 1635.85 RLU and 1447.74 RLU
- raw luminescence, TbERK8 (0.62500 (unit uncertain) compound, sheet Kinase_glo_080924_IFPS (2)): 10771.2 RLU and 11665.1 RLU and 9012.71 RLU
- raw luminescence, TbERK8 (2.50000 (unit uncertain) compound, sheet ADP_ATP_glo081724 (3)): 9775.86 RLU and 9642.41 RLU and 4501.15 RLU
- raw luminescence, TbERK8 (2.50000 (unit uncertain) compound, sheet Kinase_glo 08142024 (2)): 30745 RLU and 32114.6 RLU and 32366.1 RLU
- raw luminescence, TbERK8 (2.50000 (unit uncertain) compound, sheet Kinase_glo_080924_IFPS (2)): 19880.5 RLU and 19849.1 RLU and 15795.3 RLU
- raw luminescence, TbERK8 (10.00000 (unit uncertain) compound, sheet ADP_ATP_glo081724 (3)): 17380.3 RLU and 17721.9 RLU and 17968.4 RLU
- raw luminescence, TbERK8 (10.00000 (unit uncertain) compound, sheet Kinase_glo_080924_IFPS (2), signal = ATP left): 19548.1 RLU and 21185.4 RLU and 21443.6 RLU
